Test results published in paper PMC9289467, “A Novel Multifunctional 5,6-Dimethoxy-Indanone-Chalcone-Carbamate Hybrids Alleviates Cognitive Decline in Alzheimer’s Disease by Dual Inhibition of Acetylcholinesterase and Inflammation” (Frontiers in Aging Neuroscience, 2022).

Columns and labels:
[1] = biological target: T1, pre-formed Aβ40-AChE fibrils complex (Homo sapiens, UniProt P22303); assay: Disaggregation of pre-formed Aβ40-AChE fibrils (ThT); assay type: biochemical; conditions: Aβ40 pre-aggregated with AChE for 2 days before co-incubation with AP5
T1 construct: purchased Roche (AChE); Invitrogen (Aβ40) R005282 (AChE); 03-136 (Aβ40)
Experimental: The effects of AP5 on Aβ fibril formation and pre-formed Aβ fibrils disaggregation were determined using a previously described method of Thioflavin T (ThT, T3516, Sigma Aldrich, St. Louis, MO, United States) fluorometry ([Jan et al., 2010]).
Supplementary materials and methods … ...1 […]
Supplementary Figure 1 … .....7
Supplementary Figure 2 … .....7
Supplementary materials and methods
Prepations ofspecimen for pharmacokinetics analysis
24 h afterdosing. Brains were collected at0, 0.25, 0.5,2, 4,8 and 24 h after administration.Plasma extractions were performed by adding 90 μL methanol and 2 μL internalstandard letrozole (500 ng/mL) to a30 µL plasma sample. […]
Then 90 μL methanol and 2 μL letrozolewere added to 30 µl brainhomogenates. The samples were vortexed for 3 min and centrifuged 15 min at25,000 g.The plasma and brainhomogenate were analyzed by UPLC-TSQ/MS (Thermo Fisher Scientific, Waltham, MA, USA). […]
To study the kinetics of Aβ-AChE fibril complex formation, 10 μM Aβ was mixed with AChE (R005282, Roche, Basel, Switzerland) and different concentrations AP5 and incubated with 10 μM ThT and 50 mM glycine-NaOH (pH 8.5) at 37°C, the ThT fluorescence was continually measured for 24 h at 30 min intervals. […] Fluorescence emission at485 nm was measured on a Spectra MAX GeminiXS fluorometerat an excitation wavelength of 450 nm. […]

[2] = tested on: hippocampal gene expression; assay: Bulk RNA-seq of hippocampal tissues; assay type: in vivo, APP/PS1 mice
Experimental: APP/PS1 mice of ages 6 months were randomly divided into vehicle (APP/PS1, n = 10) and treatment groups (AP5, n = 10), which were intragastrically administered with AP5 (40 mg/kg) once daily for consecutive 5 months. AP5 was dissolved in distilled water containing 1% sodium carboxymethyl cellulose.
Hippocampal specimens from WT, APP/PS1, and AP5 mice stored in dry ice were sent to Beijing Genomics Institute (Wuhan, China), and the total RNA was extracted for RNA sequencing on BGISEQ-500 system. Moreover, the differentially expressed genes between APP/PS1 and AP5 were analyzed after RNA sequencing.

[3] = biological target: T2, Aβ40 oligomers (Homo sapiens, UniProt P05067); assay: Aβ40 self-oligomerization dot blot (A11 antibody); assay type: biochemical; conditions: oligomer-specific antibody A11
T2 construct: purchased Invitrogen 03-136
Experimental: The formation of Aβ40 or Aβ42 oligomers was monitored by dot blot with oligomer-specific antibody. Briefly, the resulting Aβ film was dissolved in ddH2O to form a 100 μM solution, and then the oligomerization reaction ([Kayed et al., 2003]) was initiated in absence or presence of different concentrations of AP5. An aliquot (2 μL) of each solution was dripped on a nitrocellulose membrane. The membrane was blocked with 5% non-fat milk in TBS for 1 h, incubated with the anti-β amyloid (MOAB-2, NBP2-13075SS, Novus Biologicals, Colorado, United States), anti-amyloid oligomers (A11, NBP1-97930, Novus Biologicals), or anti-amyloid fibrils (OC, NBP1-97930, Novus Biologicals) antibodies overnight at 4°C. The membrane was then incubated using HRP-conjugated secondary antibodies at room temperature for 1 h and then developed with ECL.

T2 sequence (P05067 672-711 limits assumed): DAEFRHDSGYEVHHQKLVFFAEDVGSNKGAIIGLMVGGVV
T1 sequence (P22303 32-614, one chain of several): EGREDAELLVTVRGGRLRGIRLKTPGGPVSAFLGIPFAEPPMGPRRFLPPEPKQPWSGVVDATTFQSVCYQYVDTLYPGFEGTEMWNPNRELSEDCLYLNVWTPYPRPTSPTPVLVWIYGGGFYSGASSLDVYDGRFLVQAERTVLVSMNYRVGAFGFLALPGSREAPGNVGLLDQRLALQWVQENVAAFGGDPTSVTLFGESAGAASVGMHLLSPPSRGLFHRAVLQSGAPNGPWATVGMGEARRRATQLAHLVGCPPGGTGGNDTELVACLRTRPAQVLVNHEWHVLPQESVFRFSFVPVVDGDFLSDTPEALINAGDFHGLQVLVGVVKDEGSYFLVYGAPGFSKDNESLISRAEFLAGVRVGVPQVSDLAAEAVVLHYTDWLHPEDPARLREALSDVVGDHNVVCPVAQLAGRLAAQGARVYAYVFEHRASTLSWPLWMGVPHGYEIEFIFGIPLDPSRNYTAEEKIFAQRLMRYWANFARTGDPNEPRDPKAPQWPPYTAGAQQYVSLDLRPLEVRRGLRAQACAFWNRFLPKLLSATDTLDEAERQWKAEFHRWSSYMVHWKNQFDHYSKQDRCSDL

Compound: CCN(C)C(=O)Oc1cccc(/C=C2\Cc3cc(OC)c(OC)cc3C2=O)c1 [AP5, (E)-3-((5,6-dimethoxy-1-oxo-1,3-dihydro-2H-inden-2-ylidene)-methyl)phenylethyl(methyl)carbamate]
- ThT fluorescence intensity, disaggregation of pre-formed Aβ40 fibrils [1]: marked decline of ThT fluorescence intensity
- expression of genes linked to pan-reactive and A1 astrocytes ([2]; hippocampus RNA-seq): reduced the expression of most genes
- expression of signature genes of A2-specific astrocytes ([2]; hippocampus RNA-seq, among groups): No differences
- DAM gene expression ([2]; hippocampus, AP5-treated vs untreated APP/PS1 mice): increase in DAM gene expression
- levels of oligomeric Aβ40 [3]: decreased the levels
